Assay results published in patent EP4603105A1, “PHARMACEUTICAL COMPOSITION CONTAINING CYCLIC COMPOUND HAVING SELECTIVE KRAS INHIBITORY EFFECT AGAINST HRAS AND NRAS” (CHUGAI SEIYAKU KABUSHIKI KAISHA, priority 2022, dated 2024).
Read-outs that look alike come from different tables or passages of the source.

Columns and labels:
HRAS wild-type protein = HRAS wild-type protein (Homo sapiens, UniProt P01112); test: Binding to HRAS by surface plasmon resonance (SPR), KD and KD ratio to KRAS
Outline: (§1)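 Running buffer contained 10 µM GDP and 10 mM MgCl2 to keep RAS in the GDP state, with 4% DMSO at pH 7.4. Compounds were flowed at 100 µL/min in 75 s steps of rising concentration over captured biotin-Avi RAS at 30°C. Sensorgrams were fitted 1:1 for KD.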

[1] = tested on: human lung cancer strain NCI-H441; test: NCI-H441 cell proliferation inhibitory activity (CellTiter-Glo, 4 days); assay type: cell-based; settings: read-out: NCl-H441 IC50
Outline: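 Step one: dispense the test compound in serial DMSO dilutions. Step three: add the reagent and measure […].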

[2] = target: GDP-bound KRAS wild-type protein (Homo sapiens, UniProt P01116); test: Binding to KRAS by surface plasmon resonance (SPR), dissociation constant KD
GDP-bound KRAS wild-type protein, sequence (P01116 1-188 isoform P01116-2): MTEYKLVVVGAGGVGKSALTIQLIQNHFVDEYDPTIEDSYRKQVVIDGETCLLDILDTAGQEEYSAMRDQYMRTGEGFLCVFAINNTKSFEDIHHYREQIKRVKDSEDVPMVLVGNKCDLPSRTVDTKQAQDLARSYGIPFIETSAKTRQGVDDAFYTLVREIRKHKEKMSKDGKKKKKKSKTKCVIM
Outline: as §1

[3] = target: GDP-bound NRAS wild-type protein (Homo sapiens, UniProt P01111); test: Binding to NRAS by surface plasmon resonance (SPR), KD and KD ratio to KRAS
GDP-bound NRAS wild-type protein, sequence (P01111 whole entry): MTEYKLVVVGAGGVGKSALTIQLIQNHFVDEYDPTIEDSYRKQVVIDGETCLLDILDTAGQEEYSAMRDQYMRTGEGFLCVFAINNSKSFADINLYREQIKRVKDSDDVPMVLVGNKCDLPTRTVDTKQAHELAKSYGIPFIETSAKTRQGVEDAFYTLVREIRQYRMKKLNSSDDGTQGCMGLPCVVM
Outline: as §1

[4] = ratio of KD with respect to HRAS wild-type protein to KD with respect to KRAS
[5] = 50% proliferation inhibitory concentration, four days
[6] = Single Cycle Kinetics, 1:1 binding model
[7] = ratio of KD with respect to GDP-bound NRAS wild-type protein to KD with respect to KRAS
[8] = ratio of KD for HRAS wild-type protein to KD for KRAS
[9] = ratio of KD for GDP-bound NRAS wild-type protein to KD for KRAS

HRAS wild-type protein, sequence (P01112 whole entry): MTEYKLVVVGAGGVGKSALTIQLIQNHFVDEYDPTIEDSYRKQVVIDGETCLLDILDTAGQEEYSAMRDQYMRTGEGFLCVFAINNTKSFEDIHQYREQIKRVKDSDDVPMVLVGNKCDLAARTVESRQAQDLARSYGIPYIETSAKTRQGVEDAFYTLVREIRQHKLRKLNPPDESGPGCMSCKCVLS

IC50 [1, 5]	Kd [2, 6]	IC50 ([1]; NCI-H441 cells, 4 days)	Kd ([2]; Single Cycle Kinetics)	Kd ([2]; 1:1 binding model)	Structure (SMILES)	HRAS /KRAS (HRAS wild-type protein; [4])	NRAS /KRAS [3, 7]	HRAS /KRAS (HRAS wild-type protein; [8])	NRAS /KRAS [3, 9]
–	–	170 nM	–	3.9 nM	CCC(CC)[C@H]1C(=O)N(C)[C@H](C(=O)N(C)C)CC(=O)N(C)[C@@H](COC)C(=O)N[C@@H]([C@@H](C)CC)C(=O)N(C)CC(=O)N(C)[C@H]2C/C=C\CCN(C2=O)[C@@H](CC2CCCCC2)C(=O)N(C)CC(=O)N[C@@H](CCc2ccc(C(F)(F)F)c(OC)c2)C(=O)N2C[C@@H](C)C[C@H]2C(=O)NC2(CC(C)(C)C2)C(=O)N1C [PP2466]	–	–	A (a compound having 10 or more and less than 20 is denoted as A)	A (a compound having 10 or more and less than 20 is denoted as A)
87.6 nM	0.7 nM	–	–	–	CCO[C@@H]1C[C@H]2C(=O)NC3(CCCC3)C(=O)N(C)[C@@H](C(CC)CC)C(=O)N(C)[C@H](C(=O)N3CCCC3)CC(=O)N(C)[C@@H](COC)C(=O)N[C@@H]([C@@H](C)CC)C(=O)N(C)CC(=O)N(C)[C@H]3C/C=C\CCN(C3=O)[C@@H](CC3CCC(F)(F)CC3)C(=O)N(C)CC(=O)N[C@@H](CCc3cc(F)c(C(F)(F)F)c(F)c3)C(=O)N2C1 [PP1441]	A (a compound having 10 or more and less than 20 is denoted as A)	A (a compound having 10 or more and less than 20 is denoted as A)	–	–

The remaining lines, values behind:

Structure (SMILES)	IC50 [1, 5]	Kd [2, 6]	IC50 ([1]; NCI-H441 cells, 4 days)	Kd ([2]; Single Cycle Kinetics)	Kd ([2]; 1:1 binding model)	HRAS /KRAS (HRAS wild-type protein; [4])	NRAS /KRAS [3, 7]	HRAS /KRAS (HRAS wild-type protein; [8])	NRAS /KRAS [3, 9]
CCO[C@@H]1C[C@H]2C(=O)NC3(CCC3)C(=O)N(C)[C@@H](C3CCCC3)C(=O)N(C)[C@H](C(=O)N(C)C)CC(=O)N(C)[C@@H](CC3CC3)C(=O)N[C@@H]([C@@H](C)CC)C(=O)N(C)CC(=O)N(C)[C@H]3C/C=C\CCN(C3=O)[C@@H](Cc3ccc(C)cc3)C(=O)N(C)CC(=O)N[C@@H](CCc3ccc(Cl)c(Cl)c3)C(=O)N2C1 [PP1485]	30.5 nM	0.28 nM	–	–	–	A (a compound having 10 or more and less than 20 is denoted as A)	A (a compound having 10 or more and less than 20 is denoted as A)	–	–
CCO[C@@H]1C[C@H]2C(=O)NC3(CCC3)C(=O)N(C)[C@@H](C3CCCC3)C(=O)N(C)[C@H](C(=O)N3CCOCC3)CC(=O)N(C)[C@@H](Cc3ccc(C#N)cc3)C(=O)N[C@@H]([C@@H](C)CC)C(=O)N(C)CC(=O)N(C)[C@H]3CCCCCN(C3=O)[C@@H](Cc3ccc(F)cc3)C(=O)N(C)CC(=O)N[C@@H](CCc3cc(F)c(C(F)(F)F)c(F)c3)C(=O)N2C1 [PP1187]	52.3 nM	0.12 nM	–	–	–	B (a compound having 3 or more and less than 10 is denoted as B)	B (a compound having 3 or more and less than 10 is denoted as B)	–	–
CCC[C@H]1C(=O)N[C@@H]([C@@H](C)CC)C(=O)N(C)CC(=O)N(C)[C@H]2C/C=C\CCN(C2=O)[C@@H](Cc2ccc(C(F)(F)F)cc2)C(=O)N(C)CC(=O)N[C@@H](CCc2ccc(C(F)(F)F)c(OC)c2)C(=O)N2CC3(CC3)C[C@H]2C(=O)N(C)C2(CCC2)C(=O)N(C)[C@@H]([C@@H](C)CC)C(=O)N(C)[C@H](C(=O)N(C)C)CC(=O)N1C [PP3291]	–	–	3.7 nM	0.85 nM	–	–	–	B (a compound having 3 or more and less than 10 is denoted as B)	A (a compound having 10 or more and less than 20 is denoted as A)
CCC[C@H]1C(=O)N[C@@H]([C@@H](C)CC)C(=O)N2CCCCC[C@H]2C(=O)N(C)[C@H]2C/C=C\CCN(C2=O)[C@@H](Cc2ccc(C)cc2)C(=O)N(C)CC(=O)N[C@@H](CCc2ccc(C(F)(F)F)c(OC)c2)C(=O)N2C[C@H](OCC)C[C@H]2C(=O)N(C)C2(CCC2)C(=O)N(C)[C@@H](C2CCCC2)C(=O)N(C)[C@H](C(=O)N(C)C)CC(=O)N1C [PP3279]	–	–	144 nM	4.5 nM	–	–	–	B (a compound having 3 or more and less than 10 is denoted as B)	A (a compound having 10 or more and less than 20 is denoted as A)
